Assay results taken from ChEMBL document CHEMBL3526141, “Characterization of human liver enzymes involved in the biotransformation of boceprevir, a hepatitis C virus protease inhibitor” (Drug Metab Dispos, 2011).

Key:
Liver cytosol [1] = assay: Drug metabolism in human liver cytosol treated with 20 uM [14C]SCH 534129 assessed as 100 uM diazepam-mediated inhibition of metabolite formation LC-MS/MS/FSA method; assay type: ADME, tissue-based; design: interact cpd dose 100 uM
Liver cytosol [2] = assay: Drug metabolism in human liver cytosol treated with 20 uM assessed as compound formation in presence of NADPH generating system by LC-MS/MS/FSA method; assay type: ADME
[3] = Drug metabolism in human liver mitochondria treated with 20 uM assessed as compound formation in presence of NADPH generating system by LC-MS/MS/FSA method; assay type: ADME
Liver cytosol [4] = assay: Drug metabolism in human liver cytosol treated with 20 uM [14C]SCH 534129 assessed as 1 mM ibuprofen-mediated inhibition of metabolite formation LC-MS/MS/FSA method; assay type: ADME, tissue-based; design: interact cpd dose 1 mM
[5] = Retention time of the compound by LC-MS/MS method; assay type: physicochemical
[6] = Drug metabolism in human liver S9 fraction treated with 20 uM assessed as compound formation in presence of NADPH generating system by LC-MS/MS/FSA method; assay type: ADME, subcellular
Plasma = assay: Drug metabolism in human plasma treated with [14C]boceprevir assessed as ratio of drug level by LC-MS/MS method relative to boceprevir; assay type: ADME, cell-free
Cytochrome P450 1A2 = target: T1, Cytochrome P450 1A2 (Homo sapiens, UniProt P05177); assay: (§1) Drug metabolism assessed as human […]-mediated compound formation from 5 uM [14C]boceprevir after 120 mins by LC-MS/FSA method relative to total [14C]boceprevir; assay type: ADME; conditions: recombinant enzyme, 2 h
T1 sequence (P05177 whole entry): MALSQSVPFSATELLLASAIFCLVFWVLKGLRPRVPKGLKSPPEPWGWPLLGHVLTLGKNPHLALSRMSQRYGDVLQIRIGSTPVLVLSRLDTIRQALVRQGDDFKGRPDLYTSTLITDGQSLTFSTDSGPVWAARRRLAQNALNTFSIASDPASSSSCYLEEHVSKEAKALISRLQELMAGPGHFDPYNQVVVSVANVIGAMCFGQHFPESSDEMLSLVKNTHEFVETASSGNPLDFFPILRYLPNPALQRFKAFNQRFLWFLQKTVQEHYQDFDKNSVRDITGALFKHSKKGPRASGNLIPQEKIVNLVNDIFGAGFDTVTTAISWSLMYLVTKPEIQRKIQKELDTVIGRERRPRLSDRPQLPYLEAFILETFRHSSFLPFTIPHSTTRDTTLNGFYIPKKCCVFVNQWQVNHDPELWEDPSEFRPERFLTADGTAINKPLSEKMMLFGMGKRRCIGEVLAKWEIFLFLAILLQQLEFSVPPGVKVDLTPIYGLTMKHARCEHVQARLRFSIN

Cytochrome P450 1A1 = target: T2, Cytochrome P450 1A1 (Homo sapiens, UniProt P04798); assay: as §1; assay type: ADME; conditions: recombinant enzyme, 2 h
T2 sequence (P04798 whole entry): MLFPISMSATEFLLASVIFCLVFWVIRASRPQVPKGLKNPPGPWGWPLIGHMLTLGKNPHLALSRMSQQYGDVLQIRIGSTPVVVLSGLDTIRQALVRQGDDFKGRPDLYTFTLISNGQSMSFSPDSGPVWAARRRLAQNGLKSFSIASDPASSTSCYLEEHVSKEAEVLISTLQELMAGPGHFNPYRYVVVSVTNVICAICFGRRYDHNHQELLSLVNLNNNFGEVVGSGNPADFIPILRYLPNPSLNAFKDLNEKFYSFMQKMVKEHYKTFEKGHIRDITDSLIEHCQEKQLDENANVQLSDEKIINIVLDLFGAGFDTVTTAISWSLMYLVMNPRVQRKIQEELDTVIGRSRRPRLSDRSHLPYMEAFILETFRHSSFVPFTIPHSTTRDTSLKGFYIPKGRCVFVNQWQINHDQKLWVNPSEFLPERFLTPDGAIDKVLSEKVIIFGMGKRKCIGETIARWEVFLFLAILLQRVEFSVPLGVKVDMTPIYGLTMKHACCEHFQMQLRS

Cytochrome P450 2B6 = target: T3, Cytochrome P450 2B6 (Homo sapiens, UniProt P20813); assay: Drug metabolism assessed as human CYP2B6-mediated compound formation from 5 uM [14C]boceprevir after 120 mins by LC-MS/FSA method relative to total [14C]boceprevir; assay type: ADME; conditions: recombinant enzyme, 2 h
T3 sequence (P20813 whole entry): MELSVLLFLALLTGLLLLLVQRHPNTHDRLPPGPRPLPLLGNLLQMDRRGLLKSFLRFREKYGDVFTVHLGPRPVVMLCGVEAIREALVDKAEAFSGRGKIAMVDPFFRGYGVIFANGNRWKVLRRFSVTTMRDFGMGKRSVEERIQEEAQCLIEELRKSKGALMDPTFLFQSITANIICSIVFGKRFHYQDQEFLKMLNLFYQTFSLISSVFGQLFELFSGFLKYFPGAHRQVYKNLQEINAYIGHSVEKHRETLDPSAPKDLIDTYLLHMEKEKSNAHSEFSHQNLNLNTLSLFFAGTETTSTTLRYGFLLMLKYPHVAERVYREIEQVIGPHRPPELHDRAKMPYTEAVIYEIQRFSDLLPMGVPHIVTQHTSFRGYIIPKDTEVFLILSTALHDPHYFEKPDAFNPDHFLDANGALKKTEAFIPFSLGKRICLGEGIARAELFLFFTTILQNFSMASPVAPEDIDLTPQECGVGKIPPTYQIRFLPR

Cytochrome P450 3A5 [7] = target: T4, Cytochrome P450 3A5 (Homo sapiens, UniProt P20815); assay: Drug metabolism assessed as human CYP3A5-mediated compound formation from 5 uM [14C]boceprevir after 120 mins by LC-MS/FSA method relative to total [14C]boceprevir; assay type: ADME; conditions: recombinant enzyme, 2 h
Cytochrome P450 3A4 [8] = target: T5, Cytochrome P450 3A4 (Homo sapiens, UniProt P08684); assay: Drug metabolism assessed as human CYP3A4-mediated compound formation from 20 uM [14C]boceprevir after 120 mins by LC-MS/FSA method relative to total [14C]boceprevir; assay type: ADME; conditions: recombinant enzyme, 2 h
Cytochrome P450 3A4 [9] = target: T5, Cytochrome P450 3A4; assay: Drug metabolism assessed as human CYP3A4-mediated compound formation from 5 uM [14C]boceprevir after 120 mins by LC-MS/FSA method relative to total [14C]boceprevir; assay type: ADME; conditions: recombinant enzyme, 2 h
Cytochrome P450 2D6 = Cytochrome P450 2D6 (Homo sapiens, UniProt P10635); assay: Drug metabolism assessed as human CYP2D6-mediated compound formation from 5 uM [14C]boceprevir after 120 mins by LC-MS/FSA method relative to total [14C]boceprevir; assay type: ADME; conditions: recombinant enzyme, 2 h
Cytochrome P450 3A5 [10] = target: T4, Cytochrome P450 3A5; assay: Drug metabolism assessed as human CYP3A5-mediated compound formation from 20 uM [14C]boceprevir after 120 mins by LC-MS/FSA method relative to total [14C]boceprevir; assay type: ADME; conditions: recombinant enzyme, 2 h
Cytochrome P450 4F3 = target: T6, Cytochrome P450 4F3 (Homo sapiens, UniProt Q08477); assay: Drug metabolism assessed as human CYP4F3A-mediated compound formation from 5 uM [14C]boceprevir after 120 mins by LC-MS/FSA method relative to total [14C]boceprevir; assay type: ADME; conditions: recombinant enzyme, 2 h
T6 sequence (Q08477 whole entry): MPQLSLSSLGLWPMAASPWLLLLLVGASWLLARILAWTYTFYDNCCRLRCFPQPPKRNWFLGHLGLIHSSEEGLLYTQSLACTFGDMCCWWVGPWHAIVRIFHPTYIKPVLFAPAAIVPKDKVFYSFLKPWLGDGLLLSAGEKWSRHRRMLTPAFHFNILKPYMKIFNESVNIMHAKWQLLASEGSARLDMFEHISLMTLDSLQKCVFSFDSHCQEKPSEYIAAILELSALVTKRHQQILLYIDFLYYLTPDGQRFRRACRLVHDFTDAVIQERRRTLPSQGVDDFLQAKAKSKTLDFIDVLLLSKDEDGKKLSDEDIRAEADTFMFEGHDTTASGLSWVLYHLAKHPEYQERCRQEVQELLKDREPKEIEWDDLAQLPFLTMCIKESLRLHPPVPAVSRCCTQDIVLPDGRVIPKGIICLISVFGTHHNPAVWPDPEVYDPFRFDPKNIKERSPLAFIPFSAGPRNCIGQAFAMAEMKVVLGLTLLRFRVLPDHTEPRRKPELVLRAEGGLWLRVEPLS

[11] = substrate: CC(C)(C)NC(=O)N[C@H](C(=O)N1C[C@H]2[C@@H]([C@H]1C(=O)NC(CC1CCC1)C(=O)C(N)=O)C2(C)C)C(C)(C)C; assay: Activity of human recombinant AKR1C2 expressed in HEK293 cells assessed as (1R,2S,5S)-N-((2S,3R)-4-amino-1-cyclobutyl-3-hydroxy-4-oxobutan-2-yl)-3-((S)-2-(3-tert-butylureido)-3,3-dimethylbutanoyl)-6,6-dimethyl-3-azabicyclo[3.1.0]hexane-2-carboxamide formation after 120 mins in presence of NADPH by LC-MS/MS/FSA method; assay type: ADME, cell-based

T4 sequence (P20815 whole entry): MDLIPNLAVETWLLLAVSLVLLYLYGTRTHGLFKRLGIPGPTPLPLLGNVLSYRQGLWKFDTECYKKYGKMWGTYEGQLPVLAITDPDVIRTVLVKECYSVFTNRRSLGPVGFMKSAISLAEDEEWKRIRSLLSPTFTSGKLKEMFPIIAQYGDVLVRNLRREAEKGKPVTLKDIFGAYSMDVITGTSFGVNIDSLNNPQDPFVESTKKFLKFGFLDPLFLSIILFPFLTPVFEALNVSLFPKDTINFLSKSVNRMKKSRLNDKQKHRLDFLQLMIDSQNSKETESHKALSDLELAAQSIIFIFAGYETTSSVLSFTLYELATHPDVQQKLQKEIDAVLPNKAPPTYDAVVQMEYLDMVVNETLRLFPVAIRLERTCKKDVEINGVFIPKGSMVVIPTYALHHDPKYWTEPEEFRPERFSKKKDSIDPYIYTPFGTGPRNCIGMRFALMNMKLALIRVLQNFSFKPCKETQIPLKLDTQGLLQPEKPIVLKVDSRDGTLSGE
T5 sequence (P08684 whole entry): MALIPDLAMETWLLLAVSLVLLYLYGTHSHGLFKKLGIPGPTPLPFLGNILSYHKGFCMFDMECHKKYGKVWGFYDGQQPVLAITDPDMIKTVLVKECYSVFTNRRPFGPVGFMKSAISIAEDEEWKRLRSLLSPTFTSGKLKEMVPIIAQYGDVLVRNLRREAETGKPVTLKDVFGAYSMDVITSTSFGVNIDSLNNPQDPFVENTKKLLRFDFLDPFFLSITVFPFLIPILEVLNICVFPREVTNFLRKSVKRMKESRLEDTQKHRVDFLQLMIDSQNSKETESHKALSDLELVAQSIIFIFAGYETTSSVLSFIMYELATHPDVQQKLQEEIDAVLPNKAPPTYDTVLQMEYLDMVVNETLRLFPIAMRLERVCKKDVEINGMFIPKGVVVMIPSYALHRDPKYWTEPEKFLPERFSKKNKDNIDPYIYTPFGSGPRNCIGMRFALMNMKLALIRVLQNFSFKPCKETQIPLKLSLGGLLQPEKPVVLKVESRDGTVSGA
Cytochrome P450 2D6, sequence (P10635 whole entry): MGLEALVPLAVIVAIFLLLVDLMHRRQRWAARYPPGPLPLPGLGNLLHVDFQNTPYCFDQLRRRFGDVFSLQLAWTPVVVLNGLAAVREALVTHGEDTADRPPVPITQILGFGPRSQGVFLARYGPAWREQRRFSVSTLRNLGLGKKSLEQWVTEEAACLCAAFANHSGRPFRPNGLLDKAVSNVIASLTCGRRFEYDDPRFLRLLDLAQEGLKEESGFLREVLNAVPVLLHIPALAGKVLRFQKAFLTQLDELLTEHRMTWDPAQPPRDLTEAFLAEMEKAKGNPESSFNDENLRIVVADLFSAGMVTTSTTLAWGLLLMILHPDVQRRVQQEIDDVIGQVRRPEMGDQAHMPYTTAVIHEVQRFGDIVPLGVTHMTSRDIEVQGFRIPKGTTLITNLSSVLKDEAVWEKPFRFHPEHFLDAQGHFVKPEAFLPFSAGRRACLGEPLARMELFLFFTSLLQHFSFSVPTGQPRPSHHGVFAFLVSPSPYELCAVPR

CC(C)(C)NC(=O)N[C@H](C(=O)N1C[C@H]2[C@@H]([C@H]1C(=O)N[C@H](CC1CCC1)[C@@H](O)C(N)=O)C2(C)C)C(C)(C)C
inhibition (INH) (Liver cytosol [1]): 78% | Compound recovery (Liver cytosol [2]): 32% | Compound recovery [3]: 32% | inhibition (INH) (Liver cytosol [4]): 63% | Retention_time [5]: 43.1 min | Compound recovery [6]: 32% | Compound recovery (Plasma): >= 50%

CC(C)(C)NC(=O)N[C@H](C(=O)N1C[C@H]2[C@@H]([C@H]1C(N)=O)C2(C)C)C(C)(C)C
Compound recovery (Cytochrome P450 1A2): 1.37% | Compound recovery (Cytochrome P450 1A1): 2.9% | Compound recovery (Cytochrome P450 2B6): 2.06% | Compound recovery (Cytochrome P450 3A5 [7]): 15.74% | Compound recovery (Cytochrome P450 3A4 [8]): < 4.64% | Compound recovery (Cytochrome P450 3A4 [9]): < 3.45% | Compound recovery (Cytochrome P450 2D6): 1.9% | Compound recovery (Cytochrome P450 3A5 [10]): 2.87% | Compound recovery (Cytochrome P450 4F3): 0.61% | Retention_time [5]: 22.2 min | Compound recovery (Plasma): 10%

B1: Aldo-keto reductase family 1 member C2 (Homo sapiens) (protein)
chain: MDSKYQCVKLNDGHFMPVLGFGTYAPAEVPKSKALEAVKLAIEAGFHHIDSAHVYNNEEQVGLAIRSKIADGSVKREDIFYTSKLWSNSHRPELVRPALERSLKNLQLDYVDLYLIHFPVSVKPGEEVIPKDENGKILFDTVDLCATWEAMEKCKDAGLAKSIGVSNFNHRLLEMILNKPGLKYKPVCNQVECHPYFNQRKLLDFCKSKDIVLVAYSALGSHREEPWVDPNSPVLLEDPVLCALAKKHKRTPALIALRYQLQRGVVVLAKSYNEQRIRQNVQVFEFQLTSEEMKAIDGLNRNVRYLTLDIFAGPPNYPFSDEY
Km [11]: 52.3 µM | Vmax [11]: 4.07e-05 µmol/min
